Data from patent publication US5714576A, “Linear analogs of alpha-msh fragments” (Competitive Technologies, Inc., priority 1997, dated 1998).
Where two headings read alike, the source gives them in different places. Positions of bridges follow the written chain, without caps; N, C: chain ends. Non-standard residues stand in square brackets, D forms with d. Residues, ends and D or L forms follow the SMILES beside them. Nle = CCCC[C@H](N)C(=O)O; Dab = NCC[C@H](N)C(=O)O

Columns and labels:
Frog (Rana pipiens) Skin = format: cell-based
Procedure: (§1) The biological potencies of alpha-MSH, the linear and cyclic analogues were determined by their ability to stimulate melanosome dispersion in vitro in the frog and lizard bioassays. This in vitro assay provides clear cut dose response curves (between 2.5×10^-11 and 4×10^-10 M) and can detect minimal concentration of alpha-MSH of about 10^-11 M. The assay is based upon the centrifugal dispersion of melanosomes (melanin granules) within the dendritic processes of integumental dermal melanophores leading to darkening of the skin. All the test solutions were prepared via serial dilutions from a stock solution (10^-4 M). The frogs (Rana pipiens) used in these evaluations were obtained from Kons Scientific, Germantown, Wis., and the lizards (Anolis carolinensis) were from the Snake Farm, La Place, La.

[1] = system: Lizard (Anolis carolinensis) Skin; format: cell-based
Procedure: as §1

[2] = cyclic analogues, alpha-MSH = 1.0

Compound	Residual Activity Frog (prolonged action) (Frog (Rana pipiens) Skin; cyclic analogues)	Biological Potency Frog (Frog (Rana pipiens) Skin; [2])	Residual Activity Lizard (prolonged action) ([1]; cyclic analogues)	Biological Potency Lizard [1, 2]	Biological Potency Frog (Frog (Rana pipiens) Skin)	Residual Activity Frog (prolonged action) (Frog (Rana pipiens) Skin; linear analogues)	Biological Potency Lizard [1]	Residual Activity Lizard (prolonged action) ([1]; linear analogues)
CCCC[C@H](NC(C)=O)C(=O)N[C@H]1CC(=O)NC[C@@H](C(N)=O)NC(=O)[C@H](Cc2c[nH]c3ccccc23)NC(=O)[C@H](CCCNC(=N)N)NC(=O)[C@@H](Cc2ccccc2)NC(=O)[C@H](Cc2c[nH]cn2)NC1=O [Analogue 20]	p(-)	0.01	p(-)	5.0				
CCCC[C@H](NC(C)=O)C(=O)N[C@@H](CCC(=O)O)C(=O)N[C@@H](Cc1c[nH]cn1)C(=O)N[C@H](Cc1ccccc1)C(=O)N[C@@H](CCCNC(=N)N)C(=O)N[C@@H](Cc1c[nH]c2ccccc12)C(=O)N[C@@H](CCN)C(N)=O [Analogue 10] (Ac-[Nle]EH[dF]RW[Dab]-NH2)					0.9	P(±)	10.0	P(±)
CCCC[C@H](NC(C)=O)C(=O)N[C@@H](CC(=O)O)C(=O)N[C@@H](Cc1c[nH]cn1)C(=O)N[C@H](Cc1ccccc1)C(=O)N[C@@H](CCCNC(=N)N)C(=O)N[C@@H](Cc1c[nH]c2ccccc12)C(=O)NCC(N)=O [Analogue 5]					0.1	P(-)	8.0	P(-)
CCCC[C@H](NC(=O)[C@H](CO)NC(C)=O)C(=O)N[C@H]1CC(=O)NCCCC[C@@H](C(N)=O)NC(=O)[C@H](Cc2c[nH]c3ccccc23)NC(=O)[C@H](CCCNC(=N)N)NC(=O)[C@@H](Cc2ccccc2)NC(=O)[C@H](Cc2c[nH]cn2)NC1=O [Analogue 24] (Ac-S[Nle]DH[dF]RWK-NH2; lactam 3-8)	p(+)	1.0						
CCCC[C@H](NC(C)=O)C(=O)N[C@H]1CC(=O)NCCCC[C@@H](C(=O)NCC(=O)N2CCC[C@H]2C(N)=O)NC(=O)[C@H](Cc2c[nH]c3ccccc23)NC(=O)[C@H](CCCNC(=N)N)NC(=O)[C@@H](Cc2ccccc2)NC(=O)[C@H](Cc2c[nH]cn2)NC1=O [Analogue 27] (Ac-[Nle]DH[dF]RWKGP-NH2; lactam 2-7)	p(+)	4.0						
CCCC[C@H](NC(=O)[C@H](CO)NC(=O)[C@H](Cc1ccc(O)cc1)NC(C)=O)C(=O)N[C@H]1CC(=O)NCCCC[C@@H](C(N)=O)NC(=O)[C@H](Cc2c[nH]c3ccccc23)NC(=O)[C@H](CCCNC(=N)N)NC(=O)[C@@H](Cc2ccccc2)NC(=O)[C@H](Cc2c[nH]cn2)NC1=O [Analogue 23] (Ac-YS[Nle]DH[dF]RWK-NH2; lactam 4-9)	p(+)	0.7						
CCCC[C@H](NC(=O)[C@H](CO)NC(=O)[C@H](Cc1ccc(O)cc1)NC(=O)[C@H](CO)NC(C)=O)C(=O)N[C@@H](CCC(=O)O)C(=O)N[C@@H](Cc1c[nH]cn1)C(=O)N[C@H](Cc1ccccc1)C(=O)N[C@@H](CCCNC(=N)N)C(=O)N[C@@H](Cc1c[nH]c2ccccc12)C(=O)N[C@@H](CCCCN)C(=O)NCC(=O)N1CCC[C@H]1C(=O)N[C@H](C(N)=O)C(C)C [Analogue 1] (Ac-SYS[Nle]EH[dF]RWKGPV-NH2)					6.0	P(+)	8.0	P(-)
CCCC[C@H](NC(C)=O)C(=O)N[C@H]1CC(=O)NCCC[C@@H](C(N)=O)NC(=O)[C@H](Cc2c[nH]c3ccccc23)NC(=O)[C@H](CCCNC(=N)N)NC(=O)[C@@H](Cc2ccccc2)NC(=O)[C@H](Cc2c[nH]cn2)NC1=O [Analogue 18]	p(-)	1.0	p(-)	20.0				
CCCC[C@H](NC(C)=O)C(=O)N[C@@H](CC(=O)O)C(=O)N[C@@H](Cc1c[nH]cn1)C(=O)N[C@H](Cc1ccccc1)C(=O)N[C@@H](CCCNC(=N)N)C(=O)N[C@@H](Cc1c[nH]c2ccccc12)C(=O)N[C@@H](CCCN)C(N)=O [Analogue 9]					0.9		10.0	P(-)
CCCC[C@H](NC(C)=O)C(=O)N[C@H]1CC(=O)NCCCC[C@@H](C(=O)NCC(=O)N2CCC[C@H]2C(=O)N[C@H](C(N)=O)C(C)C)NC(=O)[C@H](Cc2c[nH]c3ccccc23)NC(=O)[C@H](CCCNC(=N)N)NC(=O)[C@@H](Cc2ccccc2)NC(=O)[C@H](Cc2c[nH]cn2)NC1=O [Analogue 28] (Ac-[Nle]DH[dF]RWKGPV-NH2; lactam 2-7)	p(+)	2.0						
CCCC[C@H](NC(C)=O)C(=O)N[C@H]1CCC(=O)NCCCC[C@@H](C(=O)NCC(=O)N2CCC[C@H]2C(=O)N[C@H](C(N)=O)C(C)C)NC(=O)[C@H](Cc2c[nH]c3ccccc23)NC(=O)[C@H](CCCNC(=N)N)NC(=O)[C@@H](Cc2ccccc2)NC(=O)[C@H](Cc2c[nH]cn2)NC1=O [Analogue 15] (Ac-[Nle]EH[dF]RWKGPV-NH2; lactam 2-7)	p(+)	1.0	p(+)	6.0				
CCCC[C@H](NC(C)=O)C(=O)N[C@@H](CC(=O)O)C(=O)N[C@@H](Cc1c[nH]cn1)C(=O)N[C@H](Cc1ccccc1)C(=O)N[C@@H](CCCNC(=N)N)C(=O)N[C@@H](Cc1c[nH]c2ccccc12)C(=O)N[C@@H](CCCCN)C(=O)NCC(=O)N1CCC[C@H]1C(=O)N[C@H](C(N)=O)C(C)C [Analogue 4] (Ac-[Nle]DH[dF]RWKGPV-NH2)					1.0	P(+)	10.0	P(+)
CCCC[C@H](NC(C)=O)C(=O)N[C@@H](CC(=O)O)C(=O)N[C@@H](Cc1c[nH]cn1)C(=O)N[C@H](Cc1ccccc1)C(=O)N[C@@H](CCCNC(=N)N)C(=O)N[C@@H](Cc1c[nH]c2ccccc12)C(=O)N[C@@H](CN)C(N)=O [Analogue 12]					0.2	P(-)	8.0	P(-)
CCCC[C@H](NC(C)=O)C(=O)N[C@@H](CC(=O)O)C(=O)N[C@@H](Cc1c[nH]cn1)C(=O)N[C@H](Cc1ccccc1)C(=O)N[C@@H](CCCNC(=N)N)C(=O)N[C@@H](Cc1c[nH]c2ccccc12)C(=O)N[C@@H](CCN)C(N)=O [Analogue 11]					0.9	P(-)	50.0	P(-)
CCCC[C@H](NC(C)=O)C(=O)N[C@@H](CCC(=O)O)C(=O)N[C@@H](Cc1c[nH]cn1)C(=O)N[C@H](Cc1ccccc1)C(=O)N[C@@H](CCCNC(=N)N)C(=O)N[C@@H](Cc1c[nH]c2ccccc12)C(=O)N[C@@H](CCCCN)C(=O)NCC(=O)N1CCC[C@H]1C(=O)N[C@H](C(N)=O)C(C)C [Analogue 3] (Ac-[Nle]EH[dF]RWKGPV-NH2)					0.8	P(+)	8.0	P(+)
CCCC[C@H](NC(=O)[C@H](CO)NC(=O)[C@H](Cc1ccc(O)cc1)NC(=O)[C@H](CO)NC(C)=O)C(=O)N[C@H]1CC(=O)NCCCC[C@@H](C(N)=O)NC(=O)[C@H](Cc2c[nH]c3ccccc23)NC(=O)[C@H](CCCNC(=N)N)NC(=O)[C@@H](Cc2ccccc2)NC(=O)[C@H](Cc2c[nH]cn2)NC1=O [Analogue 22] (Ac-SYS[Nle]DH[dF]RWK-NH2; lactam 5-10)	p(+)	2.0						
CCCC[C@H](NC(=O)[C@H](CO)NC(=O)[C@H](Cc1ccc(O)cc1)NC(=O)[C@H](CO)NC(C)=O)C(=O)N[C@H]1CC(=O)NCCCC[C@@H](C(=O)NCC(=O)N2CCC[C@H]2C(=O)N[C@H](C(N)=O)C(C)C)NC(=O)[C@H](Cc2c[nH]c3ccccc23)NC(=O)[C@H](CCCNC(=N)N)NC(=O)[C@@H](Cc2ccccc2)NC(=O)[C@H](Cc2c[nH]cn2)NC1=O [Analogue 21] (Ac-SYS[Nle]DH[dF]RWKGPV-NH2; lactam 5-10)	p(+)	8.0						
CCCC[C@H](NC(=O)[C@H](CO)NC(C)=O)C(=O)N[C@H]1CC(=O)NCCCC[C@@H](C(=O)NCC(=O)N2CCC[C@H]2C(=O)N[C@H](C(N)=O)C(C)C)NC(=O)[C@H](Cc2c[nH]c3ccccc23)NC(=O)[C@H](CCCNC(=N)N)NC(=O)[C@@H](Cc2ccccc2)NC(=O)[C@H](Cc2c[nH]cn2)NC1=O [Analogue 29] (Ac-S[Nle]DH[dF]RWKGPV-NH2; lactam 3-8)	p(+)	9.0						
CCCC[C@H](NC(C)=O)C(=O)N[C@@H](CC(=O)O)C(=O)N[C@@H](Cc1c[nH]cn1)C(=O)N[C@H](Cc1ccccc1)C(=O)N[C@@H](CCCNC(=N)N)C(=O)N[C@@H](Cc1c[nH]c2ccccc12)C(=O)N[C@@H](CCCCN)C(N)=O [Analogue 7]							8.0	P(-)
CCCC[C@H](NC(C)=O)C(=O)N[C@H]1CC(=O)NCCCC[C@@H](C(=O)NCC(N)=O)NC(=O)[C@H](Cc2c[nH]c3ccccc23)NC(=O)[C@H](CCCNC(=N)N)NC(=O)[C@@H](Cc2ccccc2)NC(=O)[C@H](Cc2c[nH]cn2)NC1=O [Analogue 26] (Ac-[Nle]DH[dF]RWKG-NH2; lactam 2-7)	p(+)	5.5						
CCCC[C@H](NC(C)=O)C(=O)N[C@@H](CC(=O)O)C(=O)N[C@@H](Cc1c[nH]cn1)C(=O)N[C@@H](Cc1ccccc1)C(=O)N[C@@H](CCCNC(=N)N)C(=O)N[C@@H](Cc1c[nH]c2ccccc12)C(=O)N[C@@H](CCCCN)C(N)=O [Analogue 14]							0.08	P(-)
